# Test results as given in patent US20110039721A1, “METHOD FOR PREDICTION ABOUT CARCINOGENICITY OF SUBSTANCE IN RODENT” (Chemicals Evaluation and Research Institute, priority 2007, published 2011).
# Where two headings read alike, the source gives them in different places.
# Tests used:
# [1] = tested on: mRNA expressed from the genes (A) to (D) in rat liver; test: Behavior of genes (mRNA expression level, oligo-DNA microarray) in rat liver after 28-day oral administration; assay type: in vivo; conditions: for Behavior of gene caused by administration of chemical substance, Gene No. 4846 / Behavior of gene caused by administration of chemical substance, Gene No. 2026 / Behavior of gene caused by administration of chemical substance, Gene No. 4218 / Behavior of gene caused by administration of chemical substance, Gene No. 6182 / Behavior of gene caused by administration of chemical substance, Gene No. 5600: gene group (A); for Behavior of gene caused by administration of chemical substance, Gene No. 4846: Unigene No. Rn.144554; for Behavior of gene caused by administration of chemical substance, Gene No. 2026 / Behavior of gene caused by administration of chemical substance, Gene No. 4218: Unigene No. Rn.167075; for Behavior of gene caused by administration of chemical substance, Gene No. 6182: Unigene No. Rn.5834; for Behavior of gene caused by administration of chemical substance, Gene No. 5600: Unigene No. Rn.9836; for Behavior of gene caused by administration of chemical substance, Gene No. 1494 / Behavior of gene caused by administration of chemical substance, Gene No. 2045 / Behavior of gene caused by administration of chemical substance, Gene No. 2203: gene group (B); for Behavior of gene caused by administration of chemical substance, Gene No. 1494: Unigene No. Rn.1430; for Behavior of gene caused by administration of chemical substance, Gene No. 2045: Unigene No. Rn.19329; for Behavior of gene caused by administration of chemical substance, Gene No. 2203: Unigene No. Rn.21240; for Behavior of gene caused by administration of chemical substance, Gene No. 533 / Behavior of gene caused by administration of chemical substance, Gene No. 725 / Behavior of gene caused by administration of chemical substance, Gene No. 1163 / Behavior of gene caused by administration of chemical substance, Gene No. 4973 / Behavior of gene caused by administration of chemical substance, Gene No. 4095 / Behavior of gene caused by administration of chemical substance, Gene No. 1334 / Behavior of gene caused by administration of chemical substance, Gene No. 6620 / Behavior of gene caused by administration of chemical substance, Gene No. 6303 / Behavior of gene caused by administration of chemical substance, Gene No. 5878 / Behavior of gene caused by administration of chemical substance, Gene No. 1131 / Behavior of gene caused by administration of chemical substance, Gene No. 1562 / Behavior of gene caused by administration of chemical substance, Gene No. 1741 / Behavior of gene caused by administration of chemical substance, Gene No. 893 / Behavior of gene caused by administration of chemical substance, Gene No. 6026 / Behavior of gene caused by administration of chemical substance, Gene No. 154 / Behavior of gene caused by administration of chemical substance, Gene No. 1993 / Behavior of gene caused by administration of chemical substance, Gene No. 813 / Behavior of gene caused by administration of chemical substance, Gene No. 2494 / Behavior of gene caused by administration of chemical substance, Gene No. 2546 / Behavior of gene caused by administration of chemical substance, Gene No. 3776 / Behavior of gene caused by administration of chemical substance, Gene No. 3929 / Behavior of gene caused by administration of chemical substance, Gene No. 1119 / Behavior of gene caused by administration of chemical substance, Gene No. 6742 / Behavior of gene caused by administration of chemical substance, Gene No. 5634: gene group (C); for Behavior of gene caused by administration of chemical substance, Gene No. 533: Unigene No. Rn.106184; for Behavior of gene caused by administration of chemical substance, Gene No. 725: Unigene No. Rn.108075; for Behavior of gene caused by administration of chemical substance, Gene No. 1163: Unigene No. Rn.11766; for Behavior of gene caused by administration of chemical substance, Gene No. 4973: Unigene No. Rn.118529; for Behavior of gene caused by administration of chemical substance, Gene No. 4095: Unigene No. Rn.119024; for Behavior of gene caused by administration of chemical substance, Gene No. 1334 / Behavior of gene caused by administration of chemical substance, Gene No. 6620: Unigene No. Rn.120914; for Behavior of gene caused by administration of chemical substance, Gene No. 6303: Unigene No. Rn.123063; for Behavior of gene caused by administration of chemical substance, Gene No. 5878: Unigene No. Rn.143213; for Behavior of gene caused by administration of chemical substance, Gene No. 1131: Unigene No. Rn.144946; for Behavior of gene caused by administration of chemical substance, Gene No. 1562: Unigene No. Rn.14744; for Behavior of gene caused by administration of chemical substance, Gene No. 1741: Unigene No. Rn.1647; for Behavior of gene caused by administration of chemical substance, Gene No. 893: Unigene No. Rn.164817; for Behavior of gene caused by administration of chemical substance, Gene No. 6026: Unigene No. Rn.167685; for Behavior of gene caused by administration of chemical substance, Gene No. 154: Unigene No. Rn.185941; for Behavior of gene caused by administration of chemical substance, Gene No. 1993: Unigene No. Rn.18728; for Behavior of gene caused by administration of chemical substance, Gene No. 813: Unigene No. Rn.201760; for Behavior of gene caused by administration of chemical substance, Gene No. 2494: Unigene No. Rn.23969; for Behavior of gene caused by administration of chemical substance, Gene No. 2546: Unigene No. Rn.24561; for Behavior of gene caused by administration of chemical substance, Gene No. 3776: Unigene No. Rn.43232; for Behavior of gene caused by administration of chemical substance, Gene No. 3929: Unigene No. Rn.4620; for Behavior of gene caused by administration of chemical substance, Gene No. 1119: Unigene No. Rn.9757; for Behavior of gene caused by administration of chemical substance, Gene No. 6742: Unigene No. Rn.9779; for Behavior of gene caused by administration of chemical substance, Gene No. 5634: Unigene No. Rn.9862; for Behavior of gene caused by administration of chemical substance, Gene No. 5726: gene group (D), Unigene No. Rn.9939
# How it was run: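 Male F344 SPF rats, 5 weeks old, four per group, received carcinogens, non-carcinogens or solvent vehicle by oral gavage once daily for 28 days. Liver total RNA was then extracted. Changes of ≥1.5-fold or ≤1/1.5 versus vehicle control, in a consistent direction across carcinogens, counted as significant.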
# rodent = conditions: cited from earlier work
# liver = conditions: cited from earlier work
structure (smiles),measurement,setting,value
"CCC[N+](=O)[O-] [TS036, 1-Nitropropane]","Behavior of gene caused by administration of chemical substance, Gene No. 4846",[1],−
same,"Behavior of gene caused by administration of chemical substance, Gene No. 2026",[1],−
same,"Behavior of gene caused by administration of chemical substance, Gene No. 4218",[1],−
same,"Behavior of gene caused by administration of chemical substance, Gene No. 6182",[1],−
same,"Behavior of gene caused by administration of chemical substance, Gene No. 5600",[1],−
same,"Behavior of gene caused by administration of chemical substance, Gene No. 1494",[1],−
same,"Behavior of gene caused by administration of chemical substance, Gene No. 2045",[1],−
same,"Behavior of gene caused by administration of chemical substance, Gene No. 2203",[1],−
same,"Behavior of gene caused by administration of chemical substance, Gene No. 533",[1],−
same,"Behavior of gene caused by administration of chemical substance, Gene No. 725",[1],+
same,"Behavior of gene caused by administration of chemical substance, Gene No. 1163",[1],−
same,"Behavior of gene caused by administration of chemical substance, Gene No. 4973",[1],+
same,"Behavior of gene caused by administration of chemical substance, Gene No. 4095",[1],+
same,"Behavior of gene caused by administration of chemical substance, Gene No. 1334",[1],−
same,"Behavior of gene caused by administration of chemical substance, Gene No. 6620",[1],−
same,"Behavior of gene caused by administration of chemical substance, Gene No. 6303",[1],−
same,"Behavior of gene caused by administration of chemical substance, Gene No. 5878",[1],+
same,"Behavior of gene caused by administration of chemical substance, Gene No. 1131",[1],+
same,"Behavior of gene caused by administration of chemical substance, Gene No. 1562",[1],+
same,"Behavior of gene caused by administration of chemical substance, Gene No. 1741",[1],+
same,"Behavior of gene caused by administration of chemical substance, Gene No. 893",[1],+
same,"Behavior of gene caused by administration of chemical substance, Gene No. 6026",[1],−
same,"Behavior of gene caused by administration of chemical substance, Gene No. 154",[1],+
same,"Behavior of gene caused by administration of chemical substance, Gene No. 1993",[1],+
same,"Behavior of gene caused by administration of chemical substance, Gene No. 813",[1],−
same,"Behavior of gene caused by administration of chemical substance, Gene No. 2494",[1],−
same,"Behavior of gene caused by administration of chemical substance, Gene No. 2546",[1],+
same,"Behavior of gene caused by administration of chemical substance, Gene No. 3776",[1],+
same,"Behavior of gene caused by administration of chemical substance, Gene No. 3929",[1],+
same,"Behavior of gene caused by administration of chemical substance, Gene No. 1119",[1],+
same,"Behavior of gene caused by administration of chemical substance, Gene No. 6742",[1],−
same,"Behavior of gene caused by administration of chemical substance, Gene No. 5634",[1],−
same,"Behavior of gene caused by administration of chemical substance, Gene No. 5726",[1],−
same,Carcinogenicity,rodent; in vivo,C−
same,Liver carcinogenicity,liver; in vivo,Cr−
"CCCCC(CC)COC(=O)CCCCC(=O)OCC(CC)CCCC (stereo not shown) [TS018, Di(2-ethylhexyl)adipate]","Behavior of gene caused by administration of chemical substance, Gene No. 4846",[1]; mRNA vs vehicle control group,−
same,"Behavior of gene caused by administration of chemical substance, Gene No. 2026",[1]; mRNA vs vehicle control group,−
same,"Behavior of gene caused by administration of chemical substance, Gene No. 4218",[1]; mRNA vs vehicle control group,−
same,"Behavior of gene caused by administration of chemical substance, Gene No. 6182",[1]; mRNA vs vehicle control group,+
same,"Behavior of gene caused by administration of chemical substance, Gene No. 5600",[1]; mRNA vs vehicle control group,−
same,"Behavior of gene caused by administration of chemical substance, Gene No. 1494",[1]; mRNA vs vehicle control group,+
same,"Behavior of gene caused by administration of chemical substance, Gene No. 2045",[1]; mRNA vs vehicle control group,+
same,"Behavior of gene caused by administration of chemical substance, Gene No. 2203",[1]; mRNA vs vehicle control group,+
same,"Behavior of gene caused by administration of chemical substance, Gene No. 533",[1]; mRNA vs vehicle control group,+
same,"Behavior of gene caused by administration of chemical substance, Gene No. 725",[1]; mRNA vs vehicle control group,−
same,"Behavior of gene caused by administration of chemical substance, Gene No. 1163",[1]; mRNA vs vehicle control group,−
same,"Behavior of gene caused by administration of chemical substance, Gene No. 4973",[1]; mRNA vs vehicle control group,+
same,"Behavior of gene caused by administration of chemical substance, Gene No. 4095",[1]; mRNA vs vehicle control group,+
same,"Behavior of gene caused by administration of chemical substance, Gene No. 1334",[1]; mRNA vs vehicle control group,−
same,"Behavior of gene caused by administration of chemical substance, Gene No. 6620",[1]; mRNA vs vehicle control group,−
same,"Behavior of gene caused by administration of chemical substance, Gene No. 6303",[1]; mRNA vs vehicle control group,−
same,"Behavior of gene caused by administration of chemical substance, Gene No. 5878",[1]; mRNA vs vehicle control group,−
same,"Behavior of gene caused by administration of chemical substance, Gene No. 1131",[1]; mRNA vs vehicle control group,−
same,"Behavior of gene caused by administration of chemical substance, Gene No. 1562",[1]; mRNA vs vehicle control group,−
same,"Behavior of gene caused by administration of chemical substance, Gene No. 1741",[1]; mRNA vs vehicle control group,−
same,"Behavior of gene caused by administration of chemical substance, Gene No. 893",[1]; mRNA vs vehicle control group,−
same,"Behavior of gene caused by administration of chemical substance, Gene No. 6026",[1]; mRNA vs vehicle control group,−
same,"Behavior of gene caused by administration of chemical substance, Gene No. 154",[1]; mRNA vs vehicle control group,−
same,"Behavior of gene caused by administration of chemical substance, Gene No. 1993",[1]; mRNA vs vehicle control group,−
same,"Behavior of gene caused by administration of chemical substance, Gene No. 813",[1]; mRNA vs vehicle control group,−
same,"Behavior of gene caused by administration of chemical substance, Gene No. 2494",[1]; mRNA vs vehicle control group,−
same,"Behavior of gene caused by administration of chemical substance, Gene No. 2546",[1]; mRNA vs vehicle control group,−
same,"Behavior of gene caused by administration of chemical substance, Gene No. 3776",[1]; mRNA vs vehicle control group,−
same,"Behavior of gene caused by administration of chemical substance, Gene No. 3929",[1]; mRNA vs vehicle control group,−
same,"Behavior of gene caused by administration of chemical substance, Gene No. 1119",[1]; mRNA vs vehicle control group,−
same,"Behavior of gene caused by administration of chemical substance, Gene No. 6742",[1]; mRNA vs vehicle control group,−
same,"Behavior of gene caused by administration of chemical substance, Gene No. 5634",[1]; mRNA vs vehicle control group,−
same,"Behavior of gene caused by administration of chemical substance, Gene No. 5726",[1]; mRNA vs vehicle control group,−
same,Carcinogenicity,rodent; classification of the substance (C+/C−),C+
same,Liver carcinogenicity,liver; classification of the substance (Cr+/Cr−),Cr−
